Counter-ions that a name gives are not always drawn. Like-named read-outs stand apart in the source and are kept apart here.
Experiments:
Type in all cases: biochemical
RSK2 = target: T1, RSK2 (Homo sapiens, UniProt P51812); assay: RSK2 protein kinase assay; settings: for remaining activity at 10 µM: 10 μM compound; for residual kinase activity RSK2: 1 μm compound; for remaining activity at 1 µM: 1 μM compound
T1 construct: All protein kinases were of human origin and encoded full length proteins, unless indicated otherwise; made in house
T1 sequence (P51812 whole entry): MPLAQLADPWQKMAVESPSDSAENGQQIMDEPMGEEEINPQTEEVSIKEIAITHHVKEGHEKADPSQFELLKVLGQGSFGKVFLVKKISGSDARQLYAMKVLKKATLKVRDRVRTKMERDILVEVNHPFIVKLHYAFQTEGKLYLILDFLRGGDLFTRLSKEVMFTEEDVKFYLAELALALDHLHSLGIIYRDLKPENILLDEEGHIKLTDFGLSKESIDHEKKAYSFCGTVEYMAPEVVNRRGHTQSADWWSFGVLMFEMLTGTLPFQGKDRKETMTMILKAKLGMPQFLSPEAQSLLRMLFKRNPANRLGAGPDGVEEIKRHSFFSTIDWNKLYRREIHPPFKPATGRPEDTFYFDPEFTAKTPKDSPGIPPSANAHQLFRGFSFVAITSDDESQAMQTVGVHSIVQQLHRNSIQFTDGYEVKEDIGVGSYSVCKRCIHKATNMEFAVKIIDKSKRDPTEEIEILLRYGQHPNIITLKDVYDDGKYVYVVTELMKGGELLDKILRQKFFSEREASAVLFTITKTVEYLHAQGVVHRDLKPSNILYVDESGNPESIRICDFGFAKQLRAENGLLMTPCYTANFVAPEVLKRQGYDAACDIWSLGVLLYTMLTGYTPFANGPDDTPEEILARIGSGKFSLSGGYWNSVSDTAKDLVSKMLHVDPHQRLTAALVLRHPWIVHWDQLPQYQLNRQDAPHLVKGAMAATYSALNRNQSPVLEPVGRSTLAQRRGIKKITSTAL
Text: (§1) All protein kinases were of human origin and encoded full length proteins, unless indicated otherwise. They were either expressed as glutathione S-transferase (GST) fusion proteins in Escherichia Coli or as hexahistidine (His6)-tagged proteins in insect Sf21 cells. GST fusion proteins were purified by affinity chromatography on glutathione-Sepharose, and His6-tagged proteins on nickel/nitriloacetate-agarose. The procedures for expressing some of the protein kinases used herein have been detailed previously.^8,9 The following sections outline the DNA vectors synthesised and the procedures used to express and purifying protein kinases that have not been reported previously.
(§2) All assays (25.5 μl) were carried out at room temperature (21° C.) and were linear with respect to time and enzyme concentration under the conditions used. Assays were performed for 30 min using Multidrop Micro reagent dispensers (Thermo Electron Corporation, Waltham, Mass. 02454, USA) in a 96-well format. The concentration of magnesium acetate in the assays was 10 mM and the [γ-33P] ATP (800 cpm/pmol) was used at 5, 20 or 50 μM as indicated, in order to be at or below the Km for ATP for each enzyme. Protein kinases assayed at 5 μM ATP were: —ERK1, ERK8, PKBα, MARK3, Aurora C. Protein kinases assayed at 20 μM ATP were: —JNK1, PDK1, CHK1, CHK2, CDK2 and Aurora B. Protein kinases assayed at 50 μM ATP were: —MNK2, IKKepsilon and TBK1.
(§3) The assays were initiated with MgATP, stopped by addition of 5 μl of 0.5 M orthophosphoric acid and spotted on to P81 filterplates using a unifilter harvester (PerkinElmer, Boston, Mass. 02118, USA). The IC50 values of inhibitors were determined after carrying out assays at 10 different concentrations of each compound.
(§4) Unless stated otherwise, enzymes were diluted in 50 mM Tris/HCl pH 7.5, 0.1 mM EGTA, 1 mg/ml BSA, 0.1% (v/v) 2-mercaptoethanol and assayed in 50 mM Tris/HCl pH 7.5, 0.1 mM EGTA, 0.1% (v/v) 2-mercaptoethanol.

NEK6 = target: T2, NEK6 (Homo sapiens, UniProt Q9HC98); assay: NEK6 protein kinase assay; settings: for remaining activity at 10 µM: 10 μM compound; for residual kinase activity NEK6: 1 μm compound; for remaining activity at 1 µM: 1 μM compound
T2 construct: All protein kinases were of human origin and encoded full length proteins, unless indicated otherwise; made in house
T2 sequence (Q9HC98 whole entry): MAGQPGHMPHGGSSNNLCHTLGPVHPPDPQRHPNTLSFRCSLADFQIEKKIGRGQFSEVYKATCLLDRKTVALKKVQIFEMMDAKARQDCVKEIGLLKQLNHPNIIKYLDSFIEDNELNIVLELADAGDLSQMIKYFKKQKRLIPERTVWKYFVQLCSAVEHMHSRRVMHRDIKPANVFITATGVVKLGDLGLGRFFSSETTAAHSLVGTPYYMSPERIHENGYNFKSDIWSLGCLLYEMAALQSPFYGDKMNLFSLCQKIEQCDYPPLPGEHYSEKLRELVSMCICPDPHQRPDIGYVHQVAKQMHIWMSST
Text: as §1, §2, §3, §4

ERK8 = target: T3, ERK8 (Homo sapiens, UniProt Q8TD08); assay: ERK8 protein kinase assay; settings: for remaining activity at 10 µM: 10 μM compound; for residual kinase activity ERK8: 1 μm compound; for remaining activity at 1 µM: 1 μM compound
T3 construct: All protein kinases were of human origin and encoded full length proteins, unless indicated otherwise; His6; made in house; host or cells: insect Sf21 cells
T3 sequence (Q8TD08 1-544): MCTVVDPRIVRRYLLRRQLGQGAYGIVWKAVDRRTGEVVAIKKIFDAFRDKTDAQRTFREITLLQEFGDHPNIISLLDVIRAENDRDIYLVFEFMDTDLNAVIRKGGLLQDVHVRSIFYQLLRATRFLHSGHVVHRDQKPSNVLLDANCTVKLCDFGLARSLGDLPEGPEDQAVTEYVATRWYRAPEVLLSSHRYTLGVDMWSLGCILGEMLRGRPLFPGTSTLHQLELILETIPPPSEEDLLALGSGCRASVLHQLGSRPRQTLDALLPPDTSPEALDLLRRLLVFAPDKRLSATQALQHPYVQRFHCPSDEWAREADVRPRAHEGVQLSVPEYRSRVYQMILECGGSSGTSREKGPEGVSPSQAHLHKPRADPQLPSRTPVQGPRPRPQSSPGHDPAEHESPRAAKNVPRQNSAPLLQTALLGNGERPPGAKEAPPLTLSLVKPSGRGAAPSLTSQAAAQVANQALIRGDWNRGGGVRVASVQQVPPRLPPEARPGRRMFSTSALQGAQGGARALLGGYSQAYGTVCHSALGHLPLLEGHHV
Text: as §1
(§5) The following kinases were expressed in Sf21 cells: Aurora B and Aurora C, extra-cellular signal-regulated kinase 8 (ERK8), microtubule affinity regulating kinase 3 (MARK3), protein kinase Bα[118-480][S473D], protein kinase Bβ (PKBβ[120-481][S474D], 3-phosphoinositide-dependent protein kinase-1 [52-556]
as §2, §3
ERK1 and ERK8 were both assayed against myelin basic protein (MBP, 0.33 mg/ml). MARK3 was assayed against the peptide […] (300 μM), MNK2 against the eIF4E protein (0.5 mg/ml). PKBβ was assayed against the peptide […] (30 μM). TBK1 were assayed against ([…]) (300 μM). The substrates used for other protein kinases were described previously.^8,9
as §4

PDK1 = target: T4, PDK1 (Homo sapiens, UniProt O15530); assay: PDK1 protein kinase assay; settings: for remaining activity at 10 µM: 10 μM compound; for residual kinase activity PDK1: 1 μm compound; for remaining activity at 1 µM: 1 μM compound
T4 construct: 3-phosphoinositide-dependent protein kinase-1 [52-556]; His6; made in house; host or cells: insect Sf21 cells
T4 sequence (O15530 52-556): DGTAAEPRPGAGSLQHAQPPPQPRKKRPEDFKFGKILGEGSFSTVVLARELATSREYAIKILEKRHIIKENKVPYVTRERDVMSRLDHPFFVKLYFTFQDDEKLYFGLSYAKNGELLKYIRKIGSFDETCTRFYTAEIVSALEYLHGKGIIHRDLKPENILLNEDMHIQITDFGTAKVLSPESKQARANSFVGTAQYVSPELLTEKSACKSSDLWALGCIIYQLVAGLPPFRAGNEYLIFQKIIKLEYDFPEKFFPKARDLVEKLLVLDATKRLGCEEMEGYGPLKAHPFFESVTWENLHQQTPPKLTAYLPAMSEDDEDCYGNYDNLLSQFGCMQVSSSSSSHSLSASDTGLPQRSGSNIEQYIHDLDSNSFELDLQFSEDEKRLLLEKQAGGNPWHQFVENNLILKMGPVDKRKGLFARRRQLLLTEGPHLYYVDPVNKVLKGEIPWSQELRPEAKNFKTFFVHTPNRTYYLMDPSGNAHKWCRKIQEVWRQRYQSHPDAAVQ
Text: as §1, §5, §2, §3, §4

[1] = read-out: residual kinase activity RSK2
[2] = read-out: residual kinase activity NEK6
[3] = read-out: residual kinase activity ERK8
[4] = read-out: residual kinase activity PDK1
[5] = RSK2, read-out: residual kinase activity
[6] = NEK6, read-out: residual kinase activity
[7] = ERK8, 5 μM ATP, read-out: residual kinase activity
[8] = PDK1, 20 μM ATP, read-out: residual kinase activity

SMILES	remaining activity at 10 µM (RSK2; [1]) [%]	residual kinase activity RSK2 (RSK2) [%]	remaining activity at 10 µM (NEK6; [2]) [%]	residual kinase activity NEK6 (NEK6) [%]	remaining activity at 10 µM (ERK8; [3]) [%]	residual kinase activity ERK8 (ERK8) [%]	remaining activity at 10 µM (PDK1; [4]) [%]	residual kinase activity PDK1 (PDK1) [%]	remaining activity at 1 µM (RSK2; [5]) [%]	remaining activity at 10 µM (RSK2; [5]) [%]	remaining activity at 1 µM (NEK6; [6]) [%]	remaining activity at 10 µM (NEK6; [6]) [%]	remaining activity at 1 µM (ERK8; [7]) [%]	remaining activity at 10 µM (ERK8; [7]) [%]	remaining activity at 1 µM (PDK1; [8]) [%]	remaining activity at 10 µM (PDK1; [8]) [%]
O=C(NCCCNc1nc(Nc2cccc(F)c2)ncc1Br)C1CCC1 [Compound A, cyclobutanecarboxylic acid {3-[5-bromo-2-(3-fluoro-phenylamino)-pyrimidin-4-ylamino]-propyl}-amide, reference compound]	9	38	93	88	3	9	1	6								
O=C(NCCCNc1nc(Nc2cccc(F)c2)ncc1C1CC1)C1CCC1 [Example 23, Cyclobutanecarboxylic acid {3-[5-cyclopropyl-2-(3-fluoro-phenylamino)-pyrimidin-4-ylamino]-propyl}-amide]	14	44	83	88	6	14	10	44	44	14	88	83	14	6	44	10
O=C(NCCCNc1nc(Nc2cccc(N3CCCC3=O)c2)ncc1C1CC1)c1cccs1 [Example 47, Thiophene-2-carboxylic acid (3-{5-cyclopropyl-2-[3-(2-oxo-pyrrolidin-1-yl)-phenylamino]-pyrimidin-4-ylamino}-propyl)-amide. Hydrochloride salt]									65	28	65	65	33	10	9	2
O=C(NCCCNc1nc(Nc2cccnc2)ncc1C1CC1)c1cccs1 [Example 50, Thiophene-2-carboxylic acid {3-[5-cyclopropyl-2-(pyridin-3-ylamino)-pyrimidin-4-ylamino]-propyl}-amide]									69	28	107	103	13	5	22	4
